{
  "source": "paper PMC9875028",
  "about": "“Identification and virtual screening of novel anti-inflammatory peptides from broccoli fermented by Lactobacillus strains” (Frontiers in Nutrition, 2023)",
  "key": {"[1]": {"tested_on": "TNF-α", "assay": "TNF-α secretion by LPS-stimulated RAW264.7 cells (ELISA)", "format": "cell-based, Mouse", "settings": "for inhibition rate on TNF-α / effect on TNF-α production (in words): LPS 200 ng/mL; for inhibition rate on TNF-α: mean ± SD, n = 3; for effect on TNF-α production (in words): synthetic peptides 25, 50, 100 μM", "description": "(§1) RAW264.7 cells were cultured in DMEM medium containing 10% FBS and 1% double antibody at 37°C and 5% CO2 incubator. CCK-8 reagent was used for cell viability assay.\n(§2) RAW264.7 cells (3 × 10^6 cells / mL) seeded into 12-well plates were pretreated with various concentrations of broccoli hydrolyzates or synthetic peptides for 2 h before stimulation by LPS (200 ng/mL). NO was determined using Griess reagent. TNF-α and IL-6 were measured by ELISA kits according to the manufacturer's instructions. More details of the assay are shown in Supplementary Table S2."}, "[2]": {"tested_on": "IL-6", "assay": "IL-6 secretion by LPS-stimulated RAW264.7 cells (ELISA)", "format": "cell-based, Mouse", "settings": "for effect on IL-6 production (in words): synthetic peptides 25, 50, 100 μM", "description": "as §1, §2"}, "[3]": {"tested_on": "NO", "assay": "NO release from LPS-stimulated RAW264.7 cells (Griess reagent)", "format": "cell-based, Mouse", "settings": "LPS 200 ng/mL; for inhibition rate of NO release: mean ± SD, n = 3", "description": "as §1, §2"}, "[4]": {"tested_on": "TNF-α", "parameters": "method as in doi:10.1016/j.jff.2020.104044", "settings": "sturgeon protein peptide; cited from earlier work"}, "[5]": {"tested_on": "IL-6", "parameters": "method as in doi:10.1016/j.jff.2020.104044", "settings": "sturgeon protein peptide; cited from earlier work"}, "[6]": {"settings": "peptide concentration exceeding 25 μM"}},
  "note": "“Also recorded” adds a separate entry of the source.",
  "data": [
    {"substance": "ADLAHLPF [synthetic peptide identified from broccoli hydrolysate]", "values": [
      {"measurement": "inhibition rate on TNF-α", "setting": "[1]; synthetic peptide 100 μM", "result": "73.19 ± 5.31", "unit": "%"},
      {"measurement": "effect on TNF-α production (in words)", "setting": "[1]", "result": "significantly inhibited; also recorded: dose-dependently decreased TNF-α"},
      {"measurement": "effect on IL-6 production (in words)", "setting": "[2]; LPS 200 ng/mL", "result": "significantly inhibited"}
    ]},
    {"substance": "GDRW [synthetic peptide identified from broccoli hydrolysate]", "values": [
      {"measurement": "effect on TNF-α production (in words)", "setting": "[1]", "result": "significantly inhibited"},
      {"measurement": "effect on IL-6 production (in words)", "setting": "[2]; LPS 200 ng/mL", "result": "significantly inhibited"}
    ]},
    {"substance": "CKVWPPLH", "values": [
      {"measurement": "inhibition rate on TNF-α", "setting": "[1]; synthetic peptide 100 μM", "result": "73.83 ± 0.81", "unit": "%"},
      {"measurement": "effect on TNF-α production (in words)", "setting": "[1]", "result": "dose-dependently decreased TNF-α"}
    ]},
    {"substance": "SIWYGPDRP [synthetic peptide identified from broccoli hydrolysate]", "values": [
      {"measurement": "inhibition rate of NO release", "setting": "[3]; synthetic peptide 25 μM", "result": "52.32 ± 1.48", "unit": "%"}
    ]},
    {"substance": "KIWHHFF", "values": [
      {"measurement": "TNF-α inhibitory activity (in words)", "setting": "[4]", "result": "did not exhibit TNF-α inhibitory activity"},
      {"measurement": "inhibition of LPS-induced IL-6 secretion (in words)", "setting": "[5]", "result": "inhibited LPS-induced IL-6 secretion only at the lowest concentration"}
    ]},
    {"substance": "DGRYW [synthetic peptide identified from broccoli hydrolysate]", "values": [
      {"measurement": "inhibition rate of NO release", "setting": "[3]; synthetic peptide 100 μM", "result": "53.94 ± 2.49", "unit": "%"},
      {"measurement": "effect on NO secretion (in words)", "setting": "[3]; synthetic peptides 25, 50, 100 μM", "result": "reduced NO content in inflammatory cells in a dose-dependent manner"}
    ]},
    {"substance": "KASFAFAGL [synthetic peptide identified from broccoli hydrolysate]", "values": [
      {"measurement": "inhibitory activity on TNF-α secretion (in words)", "setting": "[1]; [6]", "result": "did not show inhibitory activity"},
      {"measurement": "inhibition rate on TNF-α", "setting": "[1]; synthetic peptide 25 μM (low dose)", "result": "43.59 ± 0.27", "unit": "%"},
      {"measurement": "inhibitory activity on IL-6 secretion (in words)", "setting": "[2]; [6]", "result": "did not show inhibitory activity"},
      {"measurement": "inhibition rate on IL-6", "setting": "[2]; synthetic peptide 25 μM (low dose), LPS 200 ng/mL, mean ± SD, n = 3", "result": "29.84 ± 0.63", "unit": "%"}
    ]},
    {"substance": "FGDFNPGGRL [synthetic peptide identified from broccoli hydrolysate]", "values": [
      {"measurement": "inhibition rate on TNF-α", "setting": "[1]; synthetic peptide 100 μM", "result": "68.44 ± 5.63", "unit": "%"},
      {"measurement": "effect on TNF-α production (in words)", "setting": "[1]", "result": "dose-dependently decreased TNF-α"},
      {"measurement": "effect on IL-6 production (in words)", "setting": "[2]; LPS 200 ng/mL", "result": "only inhibited IL-6 at a concentration of 50 μM"}
    ]}
  ]
}
